Assay results published in patent US20130018193A1, “DEUTERATED PIRFENIDONE” (CONCERT Pharmaceuticals Inc., priority 2007, published 2013).

Assays:
[1] = Pharmacokinetics of Compound 106 after intravenous and oral dosing in rats; assay type: in vivo, Male Sprague-Dawley rats; details: for half-life / AUC(0-inf): male, Sprague-Dawley, rat, plasma; for half-life: 8 mg/kg co-dosed with pirfenidone; for AUC(0-inf): 8 mg/kg co-dosed
Description: Male Sprague-Dawley rats (3 for each route of administration) were administered a combination of 8 mg/kg of Compound 106 and 8 mg/kg of pirfenidone in 10% DMI (dimethyl isosorbide), 15% ethanol, 35% PG in distilled water by either oral or intravenous dosing. Blood samples from the dosed rats were collected prior to dosing and at 15, 30, 45, 60, 75, 90, 120, 240, and 360 minutes post-dosing. Plasma was isolated and prepared for analysis by mixing 0.1 ml of plasma in an Eppendorf tube with 20 μL methanol and 500 μL of quetiapine (50 ng/ml as an internal standard), vortexing for 1 minute and then centrifuging at 15,000 rpm for 5 minutes to remove any cellular debris. Plasma samples were analyzed by LC-MS/MS.
LC was performed using an Agilent (Agilent Technologies Inc. USA) liquid chromatograph equipped with an isocratic pump (1100 series), an autosampler (1100 series) and a degasser (1100 series). Plasma samples (2 μL) were run at 25° C. on a Phenomenex Gemini, C18, 5 μm, (50 mm×2.0 mm) column using 0.1% formic acid:methanol (30:70) as the mobile phase with an elution rate of 300 μL/min.
Mass spectrometric analysis was performed on plasma samples (2 μL) prepared as set forth above using an API3000 (triple-quadrupole) instrument from AB Inc (Canada) with an ESI interface. The data acquisition and control system were created using Analyst 1.4 software from ABI Inc.

[2] = Pharmacokinetics of Compounds 106 and 108 after intravenous and oral dosing in chimpanzees; assay type: in vivo; details: chimps; for AUC(0-inf) / clearance / half-life / Cmax: both sexes, plasma, 100 mg each co-dosed; for half-life: 30 minute infusion
Description: Chimpanzees (one male and one female for each route of administration) were administered a combination of 100 mg of Compound 106, 100 mg of Compound 108 and 100 mg of pirfenidone in 10% DMI (dimethyl isosorbide), 15% ethanol, 35% PG in distilled water (total volume 150 ml) by either oral or intravenous dosing. Intravenous dosing was performed by infusion over a 30 minute period. Blood samples from the orally dosed chimps were collected just prior to dosing and at 15, 30, 60, 90, 120, 240, 360, 480, 600, 720 and 1440 minutes post-dosing. Blood samples (4.5 ml) from the intravenously dosed chimps were collected just prior to infusion, at 15 and 29.5 minutes after the start of infusion, and then at 6, 15, 30, 45, 60, 120, 240, 360, 480, 600, 720 and 1440 minutes post-infusion. Plasma was isolated and prepared for analysis by mixing 0.1 ml of plasma with 300 μL of indiplon in (50 ng/ml in acetonitrile/water; 90/10; v/v) as an internal standard, vortexing and then centrifuging to remove any precipitated protein.
Plasma samples (10 μl) were injected to a Zorbax SB-C8 (Rapid Resolution) column (2.1×30 mm, 3.5 μm). The initial mobile phase condition was 100% A (water with 0.1% formic acid) and 0% B (acetonitrile with 0.1% formic acid) with a flow rate at 0.75 mL/min. Mobile phase B was allowed to reach 100% in 0.75 minutes and held for 1.0 minute before ramping back to 0% in another 0.1 minute. The overall run time was 3 minutes. The precursor/product ion pairs were set at m/z 186/92, m/z 191/97, m/z 189/95 and m/z 377/293 for detecting pirfenidone, Compound 106, Compound 108 and indiplon, respectively. Plasma concentration data for each compound in each animal was individually fitted to a 2-compartment model using WinNonLin version 5.2 (PK Model #9) with weighting of 1/y.

[3] = Pharmacokinetics of Compound 108 and 109 after intravenous and oral dosing in rats; assay type: in vivo, Male Sprague-Dawley rats; details: 8 mg/kg co-dosed with 8 mg/kg pirfenidone; for % Change compared to Pirfenidone, AUC0-∞ / % Change compared to Pirfenidone, Clearance / % Change compared to Pirfenidone, Half-life: IV dosing; for % Change compared to Pirfenidone, Cmax: oral dosing

Row | increase in AUC as compared to pirfenidone ([1]; intravenous administration) [%] | increase in half-life as compared to pirfenidone ([1]; intravenous administration) [%] | half-life ([1]; IV dosing) [h] | AUC(0-inf) ([1]; IV dosing) [ng·h/mL] | AUC(0-inf) ([1]; oral dosing) [ng·h/mL] | increase in AUC as compared to pirfenidone ([1]; oral dosing) [%] | AUC(0-inf) ([2]; IV dosing (Avg)) [ng·h/mL] | clearance ([2]; IV dosing (Avg)) [mL/min/kg] | half-life ([2]; IV dosing (Avg)) [h] | AUC(0-inf) ([2]; oral dosing (Avg)) [ng·h/mL] | Cmax ([2]; oral dosing (Avg)) [ng/mL] | increase in AUC as compared to pirfenidone ([2]; intravenous administration) [%] | increase in half-life as compared to pirfenidone ([2]; intravenous administration) | increase in AUC as compared to pirfenidone ([2]; oral dosing) | increase in Cmax as compared to pirfenidone ([2]; oral dosing) | % Change compared to Pirfenidone, AUC0-∞ [3] | % Change compared to Pirfenidone, Clearance [3] [%] | % Change compared to Pirfenidone, Half-life [3] | % Change compared to Pirfenidone, Cmax [3] | SMILES
1 | 72 | 62 | 1.2 | 20100 | 13800 | 75 | 6900 | 4.37 | 1.4 | 1260 | 340 | ~50 | greater than 10% | greater than 50% | greater than 50% |  |  |  |  | [2H]c1cc(C([2H])([2H])[2H])c([2H])n(-c2ccccc2)c1=O [Compound 106, 3,6-Dideutero-5-(methyl-d3)-1-phenylpyridin-2(1H)-one]
2 |  |  |  |  |  |  | 7000 | 4.58 | 1.5 | 1350 | 360 | ~50 | greater than 20% | ~60% | ~60% | +42% | −29 | +37% | +31% | [2H]C([2H])([2H])c1ccc(=O)n(-c2ccccc2)c1 [Compound 108, 5-(Methyl-d3)-1-phenylpyridin-2(1H)-one]
3 |  |  |  |  |  |  |  |  |  |  |  |  |  |  |  | +29% | −23 | +41% | +19% | [2H]c1c([2H])c([2H])c(-n2cc(C([2H])([2H])[2H])ccc2=O)c([2H])c1[2H] [Compound 109]
4 |  |  | 0.74 | 11600 | 7910 |  | 4800 | 6.57 | 1.2 | 830 | 230 |  |  |  |  |  |  |  |  | Cc1ccc(=O)n(-c2ccccc2)c1 [Pirfenidone, 5-methyl-1-phenylpyridin-2(1H)-one]
